We go through four compounds from ChEMBL document CHEMBL5380816, “Inclusion of Nitrofurantoin into the Realm of Cancer Chemotherapy via Biology-Oriented Synthesis and Drug Repurposing” (J Med Chem, 2023).

Calls of active or inactive are those of the source. The rule behind the calls is not given here.

Assay [1] concerns Calf thymus DNA. Description: Induction of calf thymus DNA damage assessed as disrupted by DNA by measuring decrease in fluorescence intensity by EvaGreen based fluorescence plate reader analysis. Type of assay: nucleic-acid assay. As to conditions: Bos taurus; dose <= 500.0 µM.
In assay [2] the test system is HepG2. Briefly: Anticancer activity against human HepG2 cells assessed as cell shrinkage incubated at 0.11 uM for 72 hrs by phase contrast inverted microscopic analysis. The format is functional, cell-based.
Assay [3] deals with Caco-2. Description: Anticancer activity against human Caco-2 cells assessed as losing contact with neighbouring cells incubated at 0.11 uM for 72 hrs by phase contrast inverted microscopic analysis. Type of assay: functional, cell-based.
The subject of assay [4] is HepG2. Description: Induction of apoptosis in human HepG2 cells assessed as early apoptotic cells incubated at 0.11 uM for 72 hrs by annexin V-FITC based propidium iodide dual staining assay (reference value: 1.74%). Type of assay: functional.
Assay [5] concerns MCF7. Briefly: Anticancer activity against human MCF7 cells assessed as losing contact with neighbouring cells incubated at 0.11 uM for 72 hrs by phase contrast inverted microscopic analysis. Type of assay: functional, cell-based.
The subject of assay [6] is HeLa. Briefly: Induction of apoptosis in human HeLa cells assessed as late apoptotic cells incubated at 0.11 uM for 72 hrs by annexin V-FITC based propidium iodide dual staining assay (reference value: 0%). Type of assay: functional.
For assay [7], the system named is UMUC3. Briefly: Anti-clonogenicic activity in human UC3 cells assessed as reduction of colony formation at 5 uM for 24 hrs by crystal violet based staining relative to control. The format is functional. The arrangement: scale not given: the % may be the effect or the level left.
Assay [8] deals with HepG2. Description: Induction of apoptosis in human HepG2 cells assessed as viable cells incubated at 0.11 uM for 72 hrs by annexin V-FITC based propidium iodide dual staining assay (reference value: 97.27%). Type of assay: functional. As to conditions: read-out: Activity.
The test system of assay [9] is dsDNA. Briefly: Induction of damage in dsDNA (unknown origin) assessed as disrupted by DNA by measuring decrease in fluorescence intensity at 100 uM incubated for 2.5 hrs by EvaGreen based fluorescence plate reader analysis. Type of assay: nucleic-acid assay.
Assay [10] concerns Caco-2. Description: Induction of apoptosis in human Caco-2 cells assessed as caspase3/7 activation at 0.11 uM using caspase-glo 3/7 as substrate relative to control. The format is functional.
For assay [11], the system named is dsDNA. Briefly: Induction of damage in dsDNA (unknown origin) assessed as instantaneous DNA disruption by measuring decrease in fluorescence intensity at 100 uM incubated upto 160 mins by EvaGreen based fluorescence plate reader analysis. The format is nucleic-acid assay.
The test system of assay [12] is HepG2. Description: Induction of oxidative stress in human HepG2 cells assessed as cell death by measuring redox alteration fluorescence incubated at 0.017 uM for 72 hrs in presence of dihydro dichlorofluorescein diacetate by DCFH-DA based flow cytometric analysis relative to control. The format is functional.
The subject of assay [13] is HeLa. Description: Induction of apoptosis in human HeLa cells assessed as late apoptotic cells incubated at 0.017 uM for 72 hrs by annexin V-FITC based propidium iodide dual staining assay (reference value: 0%). The format is functional.
Assay [14] deals with HepG2. Description: Induction of apoptosis in human HepG2 cells assessed as caspase3/7 activation at 0.017 uM using caspase-glo 3/7 as substrate relative to control. The format is functional.
The subject of assay [15] is MCF7. Description: Induction of apoptosis in human MCF7 cells assessed as total apoptotic cells incubated at 0.017 uM for 72 hrs by annexin V-FITC based propidium iodide dual staining assay (reference value: 0.04 %). The format is functional.
Assay [16] relates to HeLa. Briefly: Induction of apoptosis in human HeLa cells assessed as total apoptotic cells incubated at 0.017 uM for 72 hrs by annexin V-FITC based propidium iodide dual staining assay (reference value: 0 +/- 0.035%). The format is functional.
The test system of assay [17] is HeLa. Description: Induction of apoptosis in human HeLa cells assessed as viable cells by measuring green uniform patch incubated at 0.017 uM for 72 hrs by acridine orange-ethidium bromide dual staining based fluorescence microscopic analysis. Type of assay: functional, cell-based.
Assay [18] has as its system HeLa. Description: Induction of apoptosis in human HeLa cells assessed as early apoptotic cells incubated at 0.017 uM for 72 hrs by annexin V-FITC based propidium iodide dual staining assay (reference value: 2.77%). The format is functional.
The subject of assay [19] is Caco-2. Briefly: Induction of apoptosis in human Caco-2 cells assessed as necrotic cells incubated at 0.017 uM for 72 hrs by annexin V-FITC based propidium iodide dual staining assay (reference value: 0.02%). Type of assay: functional.
In assay [20] the test system is HeLa. Briefly: Induction of apoptosis in human HeLa cells assessed as viable cells incubated at 0.098 uM for 72 hrs by annexin V-FITC based propidium iodide dual staining assay (reference value: 97.23%). As to conditions: read-out: Activity. Type of assay: functional.
For assay [21], the system named is HepG2. Briefly: Induction of apoptosis in human HepG2 cells assessed as late apoptotic cells by measuring orange to red patch incubated at 0.098 uM for 72 hrs by acridine orange-ethidium bromide dual staining based fluorescence microscopic analysis. The format is functional, cell-based.
The test system of assay [22] is Caco-2. Briefly: Induction of apoptosis in human Caco-2 cells assessed as late apoptotic cells incubated at 0.098 uM for 72 hrs by annexin V-FITC based propidium iodide dual staining assay (reference value: 0.02%). The format is functional.
The test system of assay [23] is HeLa. Description: Induction of apoptosis in human HeLa cells assessed as early apoptotic cells by measuring bright green patch incubated at 0.098 uM for 72 hrs by acridine orange-ethidium bromide dual staining based fluorescence microscopic analysis. The format is functional, cell-based.
The test system of assay [24] is Caco-2. Briefly: Induction of apoptosis in human Caco-2 cells assessed as total apoptotic cells incubated at 0.098 uM for 72 hrs by annexin V-FITC based propidium iodide dual staining assay (reference value: 0.04 +/- 0.005%). The format is functional.
The subject of assay [25] is HepG2. Briefly: Anticancer activity against human HepG2 cells assessed as losing contact with neighbouring cells incubated at 0.097uM for 72 hrs by phase contrast inverted microscopic analysis. Type of assay: functional, cell-based.
The subject of assay [26] is HeLa. Briefly: Induction of oxidative stress in human HeLa cells assessed as cell death by measuring redox alteration fluorescence incubated at 0.097 uM for 72 hrs in presence of dihydro dichlorofluorescein diacetate by DCFH-DA based flow cytometric analysis relative to control. The format is functional.
Assay [27] deals with MCF7. Briefly: Induction of apoptosis in human MCF7 cells assessed as total apoptotic cells incubated at 0.097 uM for 72 hrs by annexin V-FITC based propidium iodide dual staining assay (reference value: 0.04 %). Type of assay: functional.
Assay [28] relates to MCF7. Briefly: Anticancer activity against human MCF7 cells assessed as absence of normal spindle shape incubated at 0.097uM for 72 hrs by phase contrast inverted microscopic analysis. The format is functional, cell-based.
Assay [29] concerns MCF7. Briefly: Induction of apoptosis in human MCF7 cells assessed as viable cells incubated at 0.097 uM for 72 hrs by annexin V-FITC based propidium iodide dual staining assay (reference value: 99.9%). Type of assay: functional. As to conditions: read-out: Activity.
The test system of assay [30] is HeLa. Briefly: Induction of apoptosis in human HeLa cells assessed as viable cells incubated at 0.097 uM for 72 hrs by annexin V-FITC based propidium iodide dual staining assay (reference value: 97.23%). Type of assay: functional. Particulars: read-out: Activity.
In assay [31] the test system is MCF7. Description: Induction of apoptosis in human MCF7 cells assessed as increase in Bax expression level relative to control. Type of assay: functional.
Assay [32] deals with Caco-2. Briefly: Induction of apoptosis in human Caco-2 cells assessed as increase in Bax expression level relative to control. Type of assay: functional.
Assay [33] relates to HeLa. Briefly: Anticancer activity against human HeLa cells assessed as round cells incubated at 0.097uM for 72 hrs by phase contrast inverted microscopic analysis. Type of assay: functional, cell-based.
Assay [34] deals with Caco-2. Briefly: Induction of oxidative stress in human Caco-2 cells assessed as cell death by measuring redox alteration fluorescence incubated at 0.017 uM for 72 hrs in presence of dihydro dichlorofluorescein diacetate by DCFH-DA based flow cytometric analysis relative to control. The format is functional.

Consider `C#CCN1C(=O)CN(/N=C/c2ccc([N+](=O)[O-])o2)C1=O`, for which the Activity entry is “Dose-Dependent Effect” in assay [1]; 4.8% in [4]; 22.69% in assay [6]; 75% in assay [7]; 55% in assay [10]. Moreover, the result in [2], in [3], in assay [5], in assay [9] and in assay [11] was Active. In addition, the viability at 0.11 µM in assay [8] stood at 32.1%.

For `O=c1[nH]cc(F)c(=O)[nH]1` [FLUOROURACIL], the Activity is 4.78% in assay [12]; 3.4% in [13]; 12% in assay [14]; 2.94% in assay [15]; 4.29% in [16]; 7.6% in assay [18]. The Activity in [19] worked out at 0.97%. Also, in [17], the result was Active.

Regarding `O=C(CN1C(=O)CN(/N=C/c2ccc([N+](=O)[O-])o2)C1=O)c1ccc(Cl)cc1`, the viability at 0.098 µM in [20] was determined as 29.8%. Besides, the outcome in assay [21] and in assay [23] was Active. Moreover, the Activity in assay [22] turned out to be 27.58%; in assay [24], 30.95%.

As for `NS(=O)(=O)c1ccc(-n2cc(CN3C(=O)CN(/N=C/c4ccc([N+](=O)[O-])o4)C3=O)nn2)cc1`, the outcome in assay [25], in [28] and in [33] was Active. Also, the Activity in assay [26] is on record as 53.5%; in assay [27], 64.08%; in [31], 300%; in assay [32], 300%; in [34], 22.21%. Moreover, the viability at 0.097 µM was found to be 31.1% in assay [29] and 43.3% in assay [30].
